The test system of data set [1] is hepatic GSH. The data set is described as follows: Effect of methylene blue on hepatic GSH levels (Example I). The class given is in vivo, CD2 F1 female mice. As to conditions: 25 mg methylene blue iv; 4 h; 33 week old; n=9; saline 15.03±4.33; f=6.03, p<0.03. Here is the method:
Total glutathione, oxidized and reduced (GSSG and GSH respectively), was determined by a modification of the method of Tietze (Tietze, F., ANAL. BIOCHE., 27:502-522 (1969). GSH was determined by the method of Prins and Loos (Prins, H. K. and Loos, J. A., "In Biochemical Methods in Red Cell Genetics", J. Yunis, ed., Academic Press, New York, (1969)).
Because maintenance of GSH is an NADPH-dependent process, decrements in intracellular NADPH were postulated to lead to a decrease in GSH concentration. […] Hepatic GSH was similarly observed and noted to behave in corresponding fashion.

Data set [2] relates to heart. The data set is described as follows: Cardiac evaluation / heart damage score and autopsy, Study No. 1 (Example II). The class given is in vivo, Balb/c female mice. The text has this:
A pathologist examined the heart of each mouse without prior knowledge of whether the animal received doxorubicin or placebo and methylene blue ur placebo. Cages were inspected twice daily for dead animals and autopsies were done immediately. The animals' hearts were washed in normal saline, fixed in formalin and embedded in glycol methacrylate. One-micron sections were inspected by light microscopy. The condition of the hearts was scored as follows: normal-1; slightly damaged-2; moderately damaged-3; severely damaged-4. Five specific categories or criteria were utilized for this evaluation: vacuolization; myofibrillar and nuclear degeneration; necrosis; interstitial edema; and interstitial inflammation. The numerical scores were averaged for each heart to yield an overall tabulation of damage.
In the course of this study, the cages were inspected twice daily for dead animals, and within twelve hours of death an autopsy was performed upon each animal that died. The heart was excised, inspected, washed in normal saline and fixed in 10% formalin. Upon terminatiun of this study, animals which had received no doxorubicin were killed by cervical dislocation and their hearts were handled in accordance with the procedures outlined earlier above.
Nonetheless, this difference in mean value was not statistically significant at the 5% level (f=2.3, p<0.1 and>0.05).

Data set [3] concerns doxorubicin lethality. The data set is described as follows: Effects of methylene blue on doxorubicin toxicity, survival, Study No. 2 (Example II). Here is the method: (§1) Mice were obtained from Laboratory Supply Company, Inc., Indianapolis, Indiana. […] The light was maintained between 6:00 in the morning and 6:00 at night, and food and water were freely available. The rooms the mice were maintained in were sound insulated and kept at a constant relative humidity with a temperature ranging between 23° and 25° C. All animals were kept undisturbed except for a weekly cage cleaning, for 21 to 28 days after receipt from the animal supplier and prior to the experimentation. Four mice of the same sex were kept in each cage because of the well-known effects of isolation upon various biologic parameters. […] (See, Levi, F., Halberg, F., Haus, E., Sanchez, S., Sothern, R. B., Halberg, E., Hrushesky, W., Brown, H., Scheving, L. E., and Kennedy, B. J., "Synethetic Adrenocorticotropin for Optimizing Murine Circadian Chronotolerance for Adriamycin", CHRONOBIOLOGIA. 7(#2):227-244 (1980)).
(§2) The anthracycline antibiotic doxorubicin (NDC 38242-874-10, obtained from Adria Laboratories, Inc., Columbus, Ohio) was prepared to a concentration of 2 mg/ml in saline immediately prior to administration to the mice. Administration was by injection either intravenously through a transilluminated tail vein or intraperitoneally. The doxorubicin was administered in an amount per body weight of mouse of 18 mg/kg.
T-tests were used when comparing variances between two groups. […]

Data set [4] concerns doxorubicin lethality. Description: Effect of lesser doses of methylene blue on doxorubicin toxicity, survival (Example III). How it is done:
as §1, §2
T-tests were used when comparing variances between two groups. When the variance of means were compared among several groups, analysis of variance was used. Multivariate mean analysis was used when comparing groups of individuals sharing common characteristics which were anticipated might possibly affect the outcome of the statistical analysis. […] Chi-square analyses were used to compare survival percentages between and among various treatment groups at appropriate truncation points. Gehan-Wilcoxon Life Table Analyses were used to complement multivariate survival analyses in order to properly weight long-term survivors.

Data set [5] concerns L1210 leukemia cells. The data set is described as follows: Effect of methylene blue on anti-neoplastic activity of doxorubicin (Example IV). The class given is in vivo, CD2 F1 female mice. Here is the method: A strain of leukemia identified as L1210 was obtained from Arthur Bogden of the E. G. Mason Research Institute Animal and Human Tumor Bank, Worcester, Massachusetts. The tumor was kept in passage in DBA female mice. The tumor used for the below described experiments was between its tenth and twentieth in vivo passage. […] The tumor grows in ascites, which is initially clear and proceeds, within the 24 to 36 hours prior to death, to become hemorrhagic.
Accordingly, it was determined to assess tne anti-tumor efficacy of doxorubicin administered with and without methylene blue. For these studies, 120, 12 to 14 week old female CD2 F1 mice were each given 70,000 live L1210 leukemia cells 4 hours after the lights were turned on in the cages. The mice were then randomly assigned to one of seven treatment groups.

The nature of data set [6]: in vivo. Particulars: mouse, 550 mg/kg.
The conditions of data set [7]: previous studies in mice, dogs and humans; cited from earlier work.
Data set [8] relates to doxorubicin lethality. The data set is described as follows: Effects of methylene blue on anthracycline toxicity, survival, Study No. 1 (Example II).
The nature of data set [9]: Doxorubicin lethality, CD2 F1 mice. Format: in vivo.
Data set [10] can be described thus: Doxorubicin lethality, Balb/c mice. The arrangement: species or system Balb/c female mice. Particulars: mouse, in vivo.
In data set [11] the test system is cellular proteins. Description: Examination of tissues after doxorubicin administration. As to conditions: tissues subsequent to doxorubicin administration. The text has this:
The present inventor has likewise reasoned that the reduction of the oxidant stress-inducing antibiotics may be promoted by interaction with either NADH or NADPH, or their reducing proteins. […] It is therefore possible that the oxidation of NADH or NADPH may occur indirectly by the interaction of the antibiotic with these reducing proteins acting as mediators, either in addition to or in place of a direct interaction between the antibiotic and NADH or NADPH alone.

The conditions of data set [12]: cited from earlier work.
Data set [13] has as its system microsomal systems. Particulars: from NADPH and NADH; cited from earlier work.
The test system of data set [14] is hepatic microsomes and heart sarcosomes. Particulars: cited from earlier work.
The subject of data set [15] is cardiac submitochondrial particles. Particulars: cited from earlier work.
A short description of data set [16]: Effects of methylene blue on anthracycline toxicity, survival, Study No. 1 (Example II). Particulars: mouse, in vivo, 18 mg/kg.
For data set [17], the system named is antibiotic-induced free radical-mediated damage. As to conditions: humans; cited from earlier work.
Data set [18] relates to antibiotic-induced damage. As to conditions: tumor cells and normal host tissues; cited from earlier work.

The structures appear in SMILES notation.

On to `CN(C)c1ccc2nc3ccc(=[N+](C)C)cc-3sc2c1` [methylene blue, methylthionine chloride], for which, in [1], the “mean hepatic GSH levels” value amounted to 9.30±5.50 μMol/g protein. Further, the “pleural fluid, pulmonary consolidation and ascites” value in data set [2] (animals killed after saline and/or methylene blue only) is reported as “never”. In addition, the “visual appearance of hearts” value in data set [2] (animals not receiving doxorubicin (saline and/or methylene blue)) is recorded as “appeared visually normal”. Also, the “heart damage score, with methylene blue” value in [2] (doxorubicin 18 mg/kg plus methylene blue iv, normal score=1.0, f=2.3, p<0.1 and >0.05 (not significant)) worked out at 1.8±0.9. Further, the “average survival, with methylene blue” value was 113 ± 0.5 days in data set [3] (doxorubicin 18 mg/kg iv plus methylene blue 4 x 25 mg/kg (iv, then ip 1, 3, 6 h), 130 days, n=8, t=4.0, p<0.001) and 10.3 ± 1 days in data set [4] (doxorubicin 18 mg/kg iv or ip plus methylene blue 25 mg/kg iv, f=10.8, p<0.001). Also, in data set [5] (70,000 L1210 cells, doxorubicin followed by methylene blue 25 mg/kg iv 30 min after, then sc 1.5-48 h), the “survival, doxorubicin followed by methylene blue” value was 14.7 ± 0.5 days. For the same molecule, the mortality in data set [6] is 50%. In addition, the “tolerability at 25 mg/kg” value in data set [7] is reported as “well tolerated”. For the same molecule, the “survival, methylene blue without doxorubicin” value in [8] (saline and methylene blue iv, no doxorubicin, study follow-up period) is reported as “lived throughout the study follow-up period”.

As for `COc1cccc2c1C(=O)c1c(O)c3c(c(O)c1C2=O)C[C@@](O)(C(=O)CO)C[C@@H]3O[C@H]1C[C@H](N)[C@H](O)[C@H](C)O1` [doxorubicin, 14-hydroxydaunomycin], the “visual appearance of hearts” value in data set [2] (animals receiving doxorubicin) is “often pale and had a patchy fibrotic appearance”. Further, the “most prominent heart finding” value in [2] (animals which did not receive methylene blue) was “degeneration of myocytes”. Further, the “pleural fluid, pulmonary consolidation and ascites” value in [2] (autopsy, animals which had received doxorubicin) is on record as “often present”. In data set [2] (doxorubicin 18 mg/kg, no methylene blue, normal score=1.0, f=2.3, p<0.1 and >0.05), the “heart damage score, without methylene blue” value came out at 2.8±1.3. For the same molecule, in data set [3] (doxorubicin 18 mg/kg iv plus placebo, truncated at 130 days, n=7), the “mean survival time, without methylene blue” value stood at 85 ± 7 days. The “average survival, doxorubicin intraperitoneally” value in data set [4] (doxorubicin 18 mg/kg ip, f=27.4, p<0.001) worked out at 6.2 ± 0.8 days. Further, in [4] (doxorubicin 18 mg/kg iv or ip plus saline placebo, f=10.8, p<0.001), the “average survival, saline placebo” value stood at 7.2 ± 0.6 days. Moreover, the mortality result is “All of the mice succumbed to doxorubicin” in data set [4] (doxorubicin 18 mg/kg iv or ip, with methylene blue or saline); ~100% in [9] (mouse, in vivo, 18 mg/kg iv, CD2 F1); ~100% in [10] (18 mg/kg iv, Balb/c). In addition, in [4] (doxorubicin 18 mg/kg iv, f=27.4, p<0.001), the “average survival, doxorubicin intravenously” value was 11.2 ± 0.6 days. The “survival, doxorubicin and placebo” value in data set [5] (70,000 L1210 cells, doxorubicin and placebo) is 14.4 ± 1.2 days. In data set [5] (single doxorubicin treatment 3 days after tumor implantation, F=124, p<0.001), this molecule came in with an increased life span of 160%. In addition, the “survival of CD2 F1 relative to Balb/c mice” value in [9] (18 mg/kg iv, compared with Balb/c mice) is “more than 3 times longer”. Also, the mortality at 720 h in data set [9] (mouse, in vivo, 18 mg/kg ip, 30 days, CD2 F1, read-out: mortality within 30 days, intraperitoneal) was > 80%; in [10] (18 mg/kg ip, 30 days, Balb/c female, read-out: mortality within 30 days, intraperitoneal), 100%. Moreover, the “complexation with cellular proteins” value in data set [11] is “some complexation”. The solubility entry in data set [12] is “soluble in water, methanol and other aqueous alcohols but is practically insoluble in acetone, benzene, chloroform, ethyl ether and petroleum ether”. Moreover, the free radical production entry in data set [13] is “causes the production of free radicals”. For the same molecule, in [14], the oxygen consumption entry is listed as “increases oxygen consumption”. Further, the superoxide formation result in data set [15] is recorded as “stimulates superoxide formation”. Further, in [16], the mortality at 360 h was > 50%. For the same molecule, in [8] (doxorubicin 18 mg/kg iv vs ip, two-way analysis of variance), the “effect of route of administration of doxorubicin” value is reported as “no significant effect of the particular route of administration”.

With `Cc1c(C)c2c(c(C)c1O)CCC(C)(CCCC(C)CCCC(C)CCCC(C)C)O2` (stereo not drawn) [Vitamin E, α-tocopherol], the “effect on antibiotic-induced damage at tolerable doses” value in [17] is “failed to work at tolerable doses in humans”.

Regarding `CC(=O)N[C@@H](CS)C(=O)O` [N-acetyl cysteine], in [18], the “protection from antibiotic-induced damage” value was “mixed results”.

As a reminder, the mortality is the percentage killed.
